Results as given in PubChem BioAssay (NCI).
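Each compound was tested at five concentrations against cells in 96-well plates for 48 hours. GI50: concentration for 50% inhibition of growth. TGI: concentration producing complete growth inhibition.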

Key:
Experiment in all cases: NCI anticancer screen, dose series, 48 h
SNB-75 CNS = test system: SNB-75 CNS
DU-145 prostate = test system: DU-145 prostate
UO-31 renal = test system: UO-31 renal
MDA-MB-435 = test system: MDA-MB-435
SK-MEL-2 melanoma = test system: SK-MEL-2 melanoma
HCT-116 colon = test system: HCT-116 colon
HT29 colon = test system: HT29 colon
HCC-2998 colon = test system: HCC-2998 colon
LOX IMVI melanoma = test system: LOX IMVI melanoma
RXF 393 renal = test system: RXF 393 renal
SK-OV-3 ovarian = test system: SK-OV-3 ovarian
M14 melanoma = test system: M14 melanoma
MOLT-4 leukemia = test system: MOLT-4 leukemia
ACHN renal = test system: ACHN renal
U251 CNS = test system: U251 CNS
MALME-3M melanoma = test system: MALME-3M melanoma
T-47D breast = test system: T-47D breast
SF-268 CNS = test system: SF-268 CNS
RPMI-8226 leukemia = test system: RPMI-8226 leukemia
MDA-MB-231 breast = test system: MDA-MB-231 breast
786-0 renal = test system: 786-0 renal
OVCAR-5 ovarian = test system: OVCAR-5 ovarian
SK-MEL-28 melanoma = test system: SK-MEL-28 melanoma
KM12 colon = test system: KM12 colon
A549 NSCLC = test system: A549 NSCLC
MCF7 breast = test system: MCF7 breast
IGROV1 ovarian = test system: IGROV1 ovarian
NCI-H522 lung = test system: NCI-H522 lung
HS 578T breast = test system: HS 578T breast
OVCAR-3 ovarian = test system: OVCAR-3 ovarian
SR leukemia = test system: SR leukemia
NCI-H460 lung = test system: NCI-H460 lung
SNB-19 CNS = test system: SNB-19 CNS
SF-295 CNS = test system: SF-295 CNS
SK-MEL-5 melanoma = test system: SK-MEL-5 melanoma
EKVX NSCLC = test system: EKVX NSCLC
CCRF-CEM leukemia = test system: CCRF-CEM leukemia
PC-3 prostate = test system: PC-3 prostate
COLO 205 colon = test system: COLO 205 colon
HOP-92 NSCLC = test system: HOP-92 NSCLC
HL-60(TB) leukemia = test system: HL-60(TB) leukemia
OVCAR-8 ovarian = test system: OVCAR-8 ovarian
SW-620 colon = test system: SW-620 colon
HCT-15 colon = test system: HCT-15 colon
UACC-62 melanoma = test system: UACC-62 melanoma
SF-539 CNS = test system: SF-539 CNS
HOP-62 NSCLC = test system: HOP-62 NSCLC
NCI-H226 lung = test system: NCI-H226 lung
TK-10 renal = test system: TK-10 renal
UACC-257 melanoma = test system: UACC-257 melanoma
A498 renal = test system: A498 renal
NCI-H23 lung = test system: NCI-H23 lung
K-562 leukemia = test system: K-562 leukemia
SN12C renal = test system: SN12C renal
OVCAR-4 ovarian = test system: OVCAR-4 ovarian
BT-549 breast = test system: BT-549 breast
NCI/ADR-RES ovarian = test system: NCI/ADR-RES ovarian

Which results are given for `CC(C)(C)OC(=O)N1CCN(CCn2cc(C(F)(F)F)c3c(Cl)ncnc32)CC1`?
GI50 (SNB-75 CNS): 16.2 µM; TGI (SNB-75 CNS): 32.9 µM; GI50 (DU-145 prostate): 2.96 µM; TGI (DU-145 prostate): 9.2 µM; GI50 (UO-31 renal): 11.6 µM; TGI (UO-31 renal): 24.4 µM; GI50 (MDA-MB-435): 1.84 µM; TGI (MDA-MB-435): 3.65 µM; GI50 (SK-MEL-2 melanoma): 1.93 µM; TGI (SK-MEL-2 melanoma): 3.9 µM; GI50 (HCT-116 colon): 1.68 µM; TGI (HCT-116 colon): 3.15 µM; GI50 (HT29 colon): 3.27 µM; TGI (HT29 colon): 11.1 µM; GI50 (HCC-2998 colon): 2.05 µM; TGI (HCC-2998 colon): 4.53 µM; GI50 (LOX IMVI melanoma): 1.73 µM; TGI (LOX IMVI melanoma): 3.24 µM; GI50 (RXF 393 renal): 3.43 µM; TGI (RXF 393 renal): 14.4 µM; GI50 (SK-OV-3 ovarian): 16.7 µM; TGI (SK-OV-3 ovarian): 30.7 µM; GI50 (M14 melanoma): 1.77 µM; TGI (M14 melanoma): 3.49 µM; GI50 (MOLT-4 leukemia): 2.62 µM; TGI (MOLT-4 leukemia): 6.6 µM; GI50 (ACHN renal): 16.9 µM; TGI (ACHN renal): 39.3 µM; GI50 (U251 CNS): 2.01 µM; TGI (U251 CNS): 3.57 µM; GI50 (MALME-3M melanoma): 13.3 µM; TGI (MALME-3M melanoma): 27.7 µM; GI50 (T-47D breast): 11.5 µM; TGI (T-47D breast): 34.5 µM; GI50 (SF-268 CNS): 1.82 µM; TGI (SF-268 CNS): 3.61 µM; GI50 (RPMI-8226 leukemia): 3.77 µM; TGI (RPMI-8226 leukemia): 12.3 µM; GI50 (MDA-MB-231 breast): 11.1 µM; TGI (MDA-MB-231 breast): 27.5 µM; GI50 (786-0 renal): 14 µM; TGI (786-0 renal): 27.2 µM; GI50 (OVCAR-5 ovarian): 17.1 µM; TGI (OVCAR-5 ovarian): 38.7 µM; GI50 (SK-MEL-28 melanoma): 1.74 µM; TGI (SK-MEL-28 melanoma): 3.25 µM; GI50 (KM12 colon): 16.9 µM; TGI (KM12 colon): 35.3 µM; GI50 (A549 NSCLC): 19.3 µM; TGI (A549 NSCLC): 35.6 µM; GI50 (MCF7 breast): 12.3 µM; TGI (MCF7 breast): 32.1 µM; GI50 (IGROV1 ovarian): 1.84 µM; TGI (IGROV1 ovarian): 3.74 µM; GI50 (NCI-H522 lung): 15.1 µM; TGI (NCI-H522 lung): 29.9 µM; GI50 (HS 578T breast): 2.84 µM; TGI (HS 578T breast): 8.29 µM; GI50 (OVCAR-3 ovarian): 1.88 µM; TGI (OVCAR-3 ovarian): 3.66 µM; GI50 (SR leukemia): 2.94 µM; TGI (SR leukemia): > 100 µM; GI50 (NCI-H460 lung): 2.18 µM; TGI (NCI-H460 lung): 4.29 µM; GI50 (SNB-19 CNS): 2 µM; TGI (SNB-19 CNS): 3.72 µM; GI50 (SF-295 CNS): 14.5 µM; TGI (SF-295 CNS): 28.1 µM; GI50 (SK-MEL-5 melanoma): 4.19 µM; TGI (SK-MEL-5 melanoma): 14.5 µM; GI50 (EKVX NSCLC): 11.3 µM; TGI (EKVX NSCLC): 25.7 µM; GI50 (CCRF-CEM leukemia): 2.85 µM; TGI (CCRF-CEM leukemia): 9.19 µM; GI50 (PC-3 prostate): 1.79 µM; TGI (PC-3 prostate): 3.43 µM; GI50 (COLO 205 colon): 18.4 µM; TGI (COLO 205 colon): 37.9 µM; GI50 (HOP-92 NSCLC): 3.12 µM; TGI (HOP-92 NSCLC): 10.9 µM; GI50 (HL-60(TB) leukemia): 2.43 µM; TGI (HL-60(TB) leukemia): 6.46 µM; GI50 (OVCAR-8 ovarian): 2.06 µM; TGI (OVCAR-8 ovarian): 3.76 µM; GI50 (SW-620 colon): 2.2 µM; TGI (SW-620 colon): 4.64 µM; GI50 (HCT-15 colon): 1.94 µM; TGI (HCT-15 colon): 3.94 µM; GI50 (UACC-62 melanoma): 2.25 µM; TGI (UACC-62 melanoma): 5.69 µM; GI50 (SF-539 CNS): 12.8 µM; TGI (SF-539 CNS): 26.1 µM; GI50 (HOP-62 NSCLC): 2.19 µM; TGI (HOP-62 NSCLC): 4.91 µM; GI50 (NCI-H226 lung): 20 µM; TGI (NCI-H226 lung): 43.3 µM; GI50 (TK-10 renal): 19.7 µM; TGI (TK-10 renal): 42.8 µM; GI50 (UACC-257 melanoma): 3.31 µM; TGI (UACC-257 melanoma): 10.4 µM; GI50 (A498 renal): 18.2 µM; TGI (A498 renal): 32.7 µM; GI50 (NCI-H23 lung): 2 µM; TGI (NCI-H23 lung): 4.32 µM; GI50 (K-562 leukemia): 3.22 µM; TGI (K-562 leukemia): 14.1 µM; GI50 (SN12C renal): 4.05 µM; TGI (SN12C renal): 15.1 µM; GI50 (OVCAR-4 ovarian): 13.2 µM; TGI (OVCAR-4 ovarian): 26.7 µM; GI50 (BT-549 breast): 1.55 µM; TGI (BT-549 breast): 2.92 µM; GI50 (NCI/ADR-RES ovarian): 23 µM; TGI (NCI/ADR-RES ovarian): 67.7 µM
